Reference: the CheMixHub viscosity set

Experiment: xn = mol fraction of the nth substance listed

CCCCOC(C)=O + CCCCCCCC
298.15 K, 101.3 kPa
Conditions | viscosity [mPa·s]
x1 = 0.0442 | 0.5144
x1 = 0.1275 | 0.5154
x1 = 0.2822 | 0.5241
x1 = 0.3556 | 0.5333
x1 = 0.4596 | 0.5465
x1 = 0.5629 | 0.5633
x1 = 0.6356 | 0.5776
x1 = 0.7305 | 0.5991
x1 = 0.8441 | 0.6298
x1 = 0.9724 | 0.6725

CCCOC(=O)c1ccccc1 + CCCCCCCC
101 kPa
Conditions | viscosity [mPa·s]
298.15 K, x2 = 0.0773 | 2.082
298.15 K, x2 = 0.1026 | 1.998
298.15 K, x2 = 0.1613 | 1.792
298.15 K, x2 = 0.2565 | 1.512
298.15 K, x2 = 0.3067 | 1.381
298.15 K, x2 = 0.3482 | 1.286
298.15 K, x2 = 0.3951 | 1.187
298.15 K, x2 = 0.4424 | 1.094
298.15 K, x2 = 0.4882 | 1.018
298.15 K, x2 = 0.5342 | 0.948
298.15 K, x2 = 0.5836 | 0.882
298.15 K, x2 = 0.6253 | 0.828
298.15 K, x2 = 0.6796 | 0.769
298.15 K, x2 = 0.727 | 0.723
298.15 K, x2 = 0.8351 | 0.633
298.15 K, x2 = 0.9429 | 0.558
308.15 K, x2 = 0.0816 | 1.645
308.15 K, x2 = 0.13 | 1.512
308.15 K, x2 = 0.1656 | 1.421
308.15 K, x2 = 0.2095 | 1.318
308.15 K, x2 = 0.2541 | 1.225
308.15 K, x2 = 0.2993 | 1.136
308.15 K, x2 = 0.3584 | 1.034
308.15 K, x2 = 0.3968 | 0.972
308.15 K, x2 = 0.4503 | 0.897
308.15 K, x2 = 0.4892 | 0.846
308.15 K, x2 = 0.5375 | 0.79
308.15 K, x2 = 0.5822 | 0.743
308.15 K, x2 = 0.6192 | 0.707
308.15 K, x2 = 0.6824 | 0.653
308.15 K, x2 = 0.7188 | 0.625
308.15 K, x2 = 0.7692 | 0.588
308.15 K, x2 = 0.8292 | 0.55
308.15 K, x2 = 0.8674 | 0.527
308.15 K, x2 = 0.9303 | 0.497
318.15 K, x2 = 0.0629 | 1.422
318.15 K, x2 = 0.09 | 1.361
318.15 K, x2 = 0.1362 | 1.261
318.15 K, x2 = 0.1878 | 1.163
318.15 K, x2 = 0.233 | 1.081
318.15 K, x2 = 0.2525 | 1.047
318.15 K, x2 = 0.33 | 0.926
318.15 K, x2 = 0.3813 | 0.856
318.15 K, x2 = 0.4267 | 0.801
318.15 K, x2 = 0.4776 | 0.744
318.15 K, x2 = 0.5373 | 0.686
318.15 K, x2 = 0.5751 | 0.653
318.15 K, x2 = 0.6208 | 0.616
318.15 K, x2 = 0.671 | 0.581
318.15 K, x2 = 0.7073 | 0.556
318.15 K, x2 = 0.7545 | 0.53
318.15 K, x2 = 0.8156 | 0.497
318.15 K, x2 = 0.8667 | 0.472
318.15 K, x2 = 0.9127 | 0.453

CCCCOC(C)=O + CCCCCCCCC
298.15 K, 101.3 kPa
Conditions | viscosity [mPa·s]
x1 = 0.0459 | 0.6602
x1 = 0.1339 | 0.6474
x1 = 0.2324 | 0.6291
x1 = 0.3814 | 0.6318
x1 = 0.4218 | 0.6304
x1 = 0.4836 | 0.6314
x1 = 0.5989 | 0.632
x1 = 0.658 | 0.6382
x1 = 0.7574 | 0.6466
x1 = 0.8386 | 0.6563
x1 = 0.9486 | 0.6723

CCCCCCCCCCCCCCCCCCCC + CCCCCCCCCC
viscosity [mPa·s], 101.3 kPa
Conditions | x2 = 0.201 | x2 = 0.4 | x2 = 0.5 | x2 = 0.6 | x2 = 0.8
293.15 K | – | – | – | – | 1.56
303.2 K | – | – | 2.4 | 2.01 | 1.31
313.2 K | 3.14 | 2.38 | 1.95 | 1.68 | 1.12

CCCCOC(C)=O + CCCCCCCCCC
298.15 K, 101.3 kPa
Conditions | viscosity [mPa·s]
x1 = 0.3547 | 0.7515
x1 = 0.4366 | 0.7352
x1 = 0.5375 | 0.7168
x1 = 0.6473 | 0.7018
x1 = 0.7119 | 0.6958
x1 = 0.8212 | 0.6854
x1 = 0.9331 | 0.6851

CCCOC(=O)c1ccccc1 + CCCCCCCCCC
101 kPa
Conditions | viscosity [mPa·s]
298.15 K, x2 = 0.0819 | 2.098
298.15 K, x2 = 0.1156 | 2.012
298.15 K, x2 = 0.1582 | 1.889
298.15 K, x2 = 0.2027 | 1.779
298.15 K, x2 = 0.2437 | 1.682
298.15 K, x2 = 0.2875 | 1.589
298.15 K, x2 = 0.3302 | 1.501
298.15 K, x2 = 0.3837 | 1.407
298.15 K, x2 = 0.4284 | 1.338
298.15 K, x2 = 0.4707 | 1.277
298.15 K, x2 = 0.5198 | 1.213
298.15 K, x2 = 0.57 | 1.156
298.15 K, x2 = 0.6127 | 1.112
298.15 K, x2 = 0.7143 | 1.02
298.15 K, x2 = 0.773 | 0.977
298.15 K, x2 = 0.8262 | 0.94
298.15 K, x2 = 0.8749 | 0.914
298.15 K, x2 = 0.9333 | 0.887
308.15 K, x2 = 0.0562 | 1.757
308.15 K, x2 = 0.1002 | 1.658
308.15 K, x2 = 0.1418 | 1.569
308.15 K, x2 = 0.1788 | 1.495
308.15 K, x2 = 0.2302 | 1.4
308.15 K, x2 = 0.264 | 1.343
308.15 K, x2 = 0.3167 | 1.256
308.15 K, x2 = 0.356 | 1.198
308.15 K, x2 = 0.3966 | 1.142
308.15 K, x2 = 0.4436 | 1.087
308.15 K, x2 = 0.4971 | 1.029
308.15 K, x2 = 0.5403 | 0.99
308.15 K, x2 = 0.5866 | 0.952
308.15 K, x2 = 0.6432 | 0.908
308.15 K, x2 = 0.6916 | 0.875
308.15 K, x2 = 0.7401 | 0.847
308.15 K, x2 = 0.7945 | 0.816
308.15 K, x2 = 0.8513 | 0.789
308.15 K, x2 = 0.9295 | 0.759
318.15 K, x2 = 0.0529 | 1.466
318.15 K, x2 = 0.0776 | 1.417
318.15 K, x2 = 0.1165 | 1.349
318.15 K, x2 = 0.161 | 1.273
318.15 K, x2 = 0.2024 | 1.211
318.15 K, x2 = 0.2495 | 1.144
318.15 K, x2 = 0.2905 | 1.092
318.15 K, x2 = 0.3397 | 1.034
318.15 K, x2 = 0.3834 | 0.987
318.15 K, x2 = 0.432 | 0.94
318.15 K, x2 = 0.4779 | 0.899
318.15 K, x2 = 0.5308 | 0.857
318.15 K, x2 = 0.5771 | 0.824
318.15 K, x2 = 0.6312 | 0.79
318.15 K, x2 = 0.6794 | 0.763
318.15 K, x2 = 0.7616 | 0.722
318.15 K, x2 = 0.8328 | 0.693
318.15 K, x2 = 0.8708 | 0.679
318.15 K, x2 = 0.906 | 0.668

CCCCOC(C)=O + CCCCCCCCCCCC
298.15 K, 101.3 kPa
Conditions | viscosity [mPa·s]
x1 = 0.133 | 1.231
x1 = 0.2982 | 1.09
x1 = 0.4364 | 0.9867
x1 = 0.4791 | 0.9597
x1 = 0.5426 | 0.9188
x1 = 0.683 | 0.8358
x1 = 0.7904 | 0.7782
x1 = 0.8705 | 0.7393
x1 = 0.9238 | 0.7176
x1 = 0.9757 | 0.6938

CCCOC(=O)c1ccccc1 + CCCCCCCCCCCC
101 kPa
Conditions | viscosity [mPa·s]
298.15 K, x2 = 0.0304 | 2.294
298.15 K, x2 = 0.0721 | 2.175
298.15 K, x2 = 0.1434 | 2.021
298.15 K, x2 = 0.1817 | 1.949
298.15 K, x2 = 0.2145 | 1.892
298.15 K, x2 = 0.3444 | 1.688
298.15 K, x2 = 0.3881 | 1.634
298.15 K, x2 = 0.4343 | 1.583
298.15 K, x2 = 0.4851 | 1.537
298.15 K, x2 = 0.5395 | 1.494
298.15 K, x2 = 0.5883 | 1.458
298.15 K, x2 = 0.6355 | 1.431
298.15 K, x2 = 0.6936 | 1.402
298.15 K, x2 = 0.7544 | 1.38
298.15 K, x2 = 0.8162 | 1.368
298.15 K, x2 = 0.8809 | 1.358
298.15 K, x2 = 0.9435 | 1.354
308.15 K, x2 = 0.0462 | 1.805
308.15 K, x2 = 0.0938 | 1.716
308.15 K, x2 = 0.1234 | 1.663
308.15 K, x2 = 0.1581 | 1.608
308.15 K, x2 = 0.1951 | 1.553
308.15 K, x2 = 0.237 | 1.499
308.15 K, x2 = 0.2799 | 1.449
308.15 K, x2 = 0.3153 | 1.411
308.15 K, x2 = 0.359 | 1.37
308.15 K, x2 = 0.4106 | 1.326
308.15 K, x2 = 0.4473 | 1.299
308.15 K, x2 = 0.4959 | 1.267
308.15 K, x2 = 0.5498 | 1.236
308.15 K, x2 = 0.6007 | 1.21
308.15 K, x2 = 0.6592 | 1.191
308.15 K, x2 = 0.7183 | 1.172
308.15 K, x2 = 0.7624 | 1.163
308.15 K, x2 = 0.8324 | 1.153
308.15 K, x2 = 0.9146 | 1.146
318.15 K, x2 = 0.026 | 1.532
318.15 K, x2 = 0.0634 | 1.473
318.15 K, x2 = 0.0967 | 1.423
318.15 K, x2 = 0.1355 | 1.371
318.15 K, x2 = 0.1705 | 1.328
318.15 K, x2 = 0.2119 | 1.28
318.15 K, x2 = 0.2499 | 1.242
318.15 K, x2 = 0.2955 | 1.201
318.15 K, x2 = 0.3358 | 1.168
318.15 K, x2 = 0.4031 | 1.12
318.15 K, x2 = 0.4279 | 1.105
318.15 K, x2 = 0.48 | 1.077
318.15 K, x2 = 0.5272 | 1.055
318.15 K, x2 = 0.5827 | 1.033
318.15 K, x2 = 0.6342 | 1.015
318.15 K, x2 = 0.6953 | 0.997
318.15 K, x2 = 0.7509 | 0.985
318.15 K, x2 = 0.8169 | 0.975
318.15 K, x2 = 0.8761 | 0.968

CCCCCCCC(=O)O + CCCCCCCCCCCC(=O)O
100 kPa, x2 = 0.25
Conditions | viscosity [mPa·s]
293.15 K | 8.223
298.15 K | 7.085
303.15 K | 6.158
308.15 K | 5.394
313.15 K | 4.759
318.15 K | 4.227
323.15 K | 3.777
